Patent US11225470B2, “Tetrazolinone compounds and its use as pest control agents” (SUMITOMO CHEMICAL COMPANY, LIMITED, priority 2016, dated 2022)

Experiments:
Assay type in all cases: in vivo
[1] = tested on: cotton aphid (Aphis gossypii); assay: cotton aphid test on cucumber seedling; conditions: 144 h, 500 ppm spray on infested cucumber seedling, counted after 6 days, read-out: Controlling value (%)
[2] = tested on: cabbage moth (Plutella xylostella); assay: cabbage moth mortality test on cabbage seedling; conditions: 120 h, 500 ppm spray on cabbage seedling, five second instar larvae, counted after 5 days, read-out: Morality (%)
Source text: Any of the present compounds 1-4, 1-5, 1-6, 3-9, 3-13, 3-17, 3-23, 3-25, 3-26, 3-29, 3-31, 4-1 or 5-3, each of which was made to a formulation according to the similar method to that of Formulation Example 6, was mixed with water so as to be 500 ppm. The mixtures were sprayed to foliar parts of the cabbage seedling (on the developmental stage of the second to third true leaf) that was planted in a container so as to adhere adequately on the leaves of the above-mentioned cabbage. After the spraying, the stem and leaf of the seedling was cut out and then was installed into the container that was covered with the filter paper. Five heads of cabbage moth (Plutella xylostella) at the second instar larval stages were released into the cup. After 5 days, the surviving insects were counted, and the mortality of insects was calculated by the following equation. Morality (%)={1−the number of the surviving insects/5}×100

[3] = tested on: tomato late blight fungi (Phytophthora infestans); conditions: 500 ppm foliar spray, inoculation after 1 day; tomato cv PATIO

Compound | pest or weed control at 500 ppm [1] [%] | pest or weed control at 500 ppm [2] [%] | lesion area compared to the lesion area in an untreated tomato [3] [%]
CCC(=NN=C(C)c1cc2ccccc2o1)OCc1c(C)cccc1-n1nnn(C)c1=O [1-2] | ≥ 60 | – | –
CCC(=NN=C(C)c1cc2ccccc2s1)OCc1c(C)cccc1-n1nnn(C)c1=O [1-3] | ≥ 60 | – | –
CCC(=NN=C(C)c1cnccn1)OCc1c(C)cccc1-n1nnn(C)c1=O [1-4] | ≥ 60 | ≥ 80 | –
CCC(=NN=C(C)c1nc2ccccc2s1)OCc1c(C)cccc1-n1nnn(C)c1=O [1-5] | – | ≥ 80 | –
CC(=NN=C(OCc1c(C)cccc1-n1nnn(C)c1=O)N(C)C)c1ccc(F)cc1 [1-6] | – | ≥ 80 | –
CCSC(=NCCc1ccccc1)SCc1c(C)cccc1-n1nnn(C)c1=O [3-1] | ≥ 60 | – | –
CCc1ccc(N=C(SC)SCc2c(C)cccc2-n2nnn(C)c2=O)cc1 [3-8] | ≥ 60 | – | –
CSC(=NCc1ccccc1)SCc1c(C)cccc1-n1nnn(C)c1=O [3-9] | – | ≥ 80 | –
CSC(=NCc1cccc(C)c1)SCc1c(C)cccc1-n1nnn(C)c1=O [3-11] | ≥ 60 | – | –
CSC(=NCc1ccc(C)cc1)SCc1c(C)cccc1-n1nnn(C)c1=O [3-12] | ≥ 60 | – | –
COc1ccccc1CN=C(SC)SCc1c(C)cccc1-n1nnn(C)c1=O [3-13] | – | ≥ 80 | –
CSC(=NC(C)(C)C)SCc1c(C)cccc1-n1nnn(C)c1=O [3-17] | – | ≥ 80 | –
CSC(=NCC1CCOCC1)SCc1c(C)cccc1-n1nnn(C)c1=O [3-23] | – | ≥ 80 | –
CSC(=NCCc1ccccc1F)SCc1c(C)cccc1-n1nnn(C)c1=O [3-25] | – | ≥ 80 | –
CSC(=NCCc1cccc(F)c1)SCc1c(C)cccc1-n1nnn(C)c1=O [3-26] | – | ≥ 80 | –
CSC(=NCCCCc1ccccc1)SCc1c(C)cccc1-n1nnn(C)c1=O [3-29] | ≥ 60 | ≥ 80 | –
CSC(=NCCc1ccccc1Cl)SCc1c(C)cccc1-n1nnn(C)c1=O [3-31] | – | ≥ 80 | –
CSC(=Nc1cccc(C(F)(F)F)c1)SCc1c(C)cccc1-n1nnn(C)c1=O [4-1] | – | ≥ 80 | –
CSC(=Nc1ccc(F)cc1)SCc1c(C)cccc1-n1nnn(C)c1=O [4-6] | ≥ 60 | – | –
CC(=NOCc1c(C)cccc1-n1nnn(C)c1=O)OCCCc1ccccc1 [5-3] | ≥ 60 | ≥ 80 | –
CCON=C(C)C(C)=NN=C(CC)OCc1c(C)cccc1-n1nnn(C)c1=O [A-2] | ≥ 60 | – | –

Compound | pest or weed control at 500 ppm [1] [%] | pest or weed control at 500 ppm [2] [%] | lesion area compared to the lesion area in an untreated tomato [3] [%]
CCC(=NN=C(C)C(C)=NOC(C)C)OCc1c(C)cccc1-n1nnn(C)c1=O [A-3] | ≥ 60 | ≥ 80 | –
CCC(=NN=C(C)C(C)=NO)OCc1c(C)cccc1-n1nnn(C)c1=O [B-1] | – | ≥ 80 | –
CCC(=NN=C(C)C(C)=NOCc1ccccc1)OCc1c(C)cccc1-n1nnn(C)c1=O [C-1] | ≥ 60 | ≥ 80 | –
C=CCON=C(C)C(C)=NN=C(CC)OCc1c(C)cccc1-n1nnn(C)c1=O [C-2] | ≥ 60 | ≥ 80 | –
CC=CCON=C(C)C(C)=NN=C(CC)OCc1c(C)cccc1-n1nnn(C)c1=O [C-3] | ≥ 60 | ≥ 80 | –
C#CCON=C(C)C(C)=NN=C(CC)OCc1c(C)cccc1-n1nnn(C)c1=O [C-5] | – | ≥ 80 | –
CCC(=NN=C(C)C(C)=NOCc1ccccc1C)OCc1c(C)cccc1-n1nnn(C)c1=O [C-7] | ≥ 60 | – | –
CCC(=NN=C(C)C(C)=NOCc1cccc(OC)c1)OCc1c(C)cccc1-n1nnn(C)c1=O [C-10] | ≥ 60 | ≥ 80 | –
CCC(=NN=C(C)C(C)=NOCc1cccc(C)c1)OCc1c(C)cccc1-n1nnn(C)c1=O [C-11] | ≥ 60 | ≥ 80 | –
CCC(=NN=C(C)C(C)=NOCc1ccc(OC)cc1)OCc1c(C)cccc1-n1nnn(C)c1=O [C-12] | ≥ 60 | ≥ 80 | –
CCC(=NN=C(C)C(C)=NOCC#N)OCc1c(C)cccc1-n1nnn(C)c1=O [C-13] | – | ≥ 80 | –
CCC(=NN=C(C)C(C)=NOCCOC)OCc1c(C)cccc1-n1nnn(C)c1=O [C-14] | ≥ 60 | ≥ 80 | –
CCC(=NN=C(C)c1c(C)nn(C)c1Cl)OCc1c(C)cccc1-n1nnn(C)c1=O [D-1] | ≥ 60 | ≥ 80 | –
CCC(=NN=C(C)c1ccc2c(c1)CCO2)OCc1c(C)cccc1-n1nnn(C)c1=O [D-2] | ≥ 60 | ≥ 80 | –
CCC(=NN=C(C)c1ccc2scnc2c1)OCc1c(C)cccc1-n1nnn(C)c1=O [D-3] | ≥ 60 | ≥ 80 | –
CCC(=NN=C(C)c1cnc2ccccc2c1)OCc1c(C)cccc1-n1nnn(C)c1=O [D-5] | ≥ 60 | ≥ 80 | –
CCC(=NN=C(C)c1cc2ccccc2n1C)OCc1c(C)cccc1-n1nnn(C)c1=O [D-6] | ≥ 60 | – | –
CCC(=NN=C(C)c1ccc2c(ccn2C)c1)OCc1c(C)cccc1-n1nnn(C)c1=O [D-7] | ≥ 60 | – | –
CCC(=NN=C(C)c1ccc2c(c1)OCO2)OCc1c(C)cccc1-n1nnn(C)c1=O [D-8] | ≥ 60 | ≥ 80 | –
CCC(=NN=C(C)c1cccc2c1OC(F)(F)O2)OCc1c(C)cccc1-n1nnn(C)c1=O [D-9] | ≥ 60 | – | –
CCC(=NN=C(C)c1ccn(C)n1)OCc1c(C)cccc1-n1nnn(C)c1=O [D-19] | – | ≥ 80 | –

Compound | pest or weed control at 500 ppm [1] [%] | pest or weed control at 500 ppm [2] [%] | lesion area compared to the lesion area in an untreated tomato [3] [%]
CCC(=NN=C1CCc2c(F)cccc21)OCc1c(C)cccc1-n1nnn(C)c1=O [E-2] | ≥ 60 | – | –
CCC(=NN=C1CCc2cc(F)ccc21)OCc1c(C)cccc1-n1nnn(C)c1=O [E-3] | ≥ 60 | – | –
CCC(=NN=C1CCc2ccc(F)cc21)OCc1c(C)cccc1-n1nnn(C)c1=O [E-4] | ≥ 60 | – | –
CCC(=NN=C1CCc2cccc(F)c21)OCc1c(C)cccc1-n1nnn(C)c1=O [E-5] | – | ≥ 80 | –
CCC(=NN=C1CCc2c(OC)cccc21)OCc1c(C)cccc1-n1nnn(C)c1=O [E-6] | ≥ 60 | ≥ 80 | ≤ 30
CCC(=NN=C1CCc2ccc(OC)cc21)OCc1c(C)cccc1-n1nnn(C)c1=O [E-8] | ≥ 60 | – | –
CCC(=NN=C1COc2ccccc21)OCc1c(C)cccc1-n1nnn(C)c1=O [E-10] | ≥ 60 | – | –
CCC(=NN=C1CCOc2ccccc21)OCc1c(C)cccc1-n1nnn(C)c1=O [E-11] | ≥ 60 | – | –
CCC(=NN=C1CCOc2ccccc21)OCc1c(OC)cccc1-n1nnn(C)c1=O [E-12] | ≥ 60 | ≥ 80 | –
CCC(=NN=C1CCOc2ccccc21)OCc1c(Cl)cccc1-n1nnn(C)c1=O [E-13] | – | ≥ 80 | –
CCC(=NN=C1CCOc2ccccc21)OCc1c(C2CC2)cccc1-n1nnn(C)c1=O [E-14] | ≥ 60 | ≥ 80 | –
CCC(=NN=C1CCOc2cccc(F)c21)OCc1c(C)cccc1-n1nnn(C)c1=O [E-21] | – | ≥ 80 | –
CCC(=NN=C1CCOc2cc(F)cc(F)c21)OCc1c(C)cccc1-n1nnn(C)c1=O [E-24] | ≥ 60 | ≥ 80 | –
CCC(=NN=C1CCCc2ccccc21)OCc1c(C)cccc1-n1nnn(C)c1=O [E-25] | ≥ 60 | ≥ 80 | –
CCC(=NN=C1CCOc2ccc(C)cc21)OCc1c(C)cccc1-n1nnn(C)c1=O [E-26] | ≥ 60 | ≥ 80 | –
CCC(=NN=C1CCOc2c(F)ccc(F)c21)OCc1c(C)cccc1-n1nnn(C)c1=O [E-27] | ≥ 60 | ≥ 80 | –
CCC(=NN=C1CCSc2ccccc21)OCc1c(C)cccc1-n1nnn(C)c1=O [E-28] | ≥ 60 | ≥ 80 | –
CCC(=NN=C1CC[S+]([O-])c2ccccc21)OCc1c(C)cccc1-n1nnn(C)c1=O (stereo not shown) [E-29] | ≥ 60 | ≥ 80 | –
CCC(=NN=C1CCOc2cc(OC)ccc21)OCc1c(C)cccc1-n1nnn(C)c1=O [E-30] | ≥ 60 | ≥ 80 | –
